Measured values as given in patent US20130065883A1 (Centro Nacional de Investigaceiones Oncologicas (CNIO), priority 2010, published 2013).

Key:
[1] = biological target: T1, PIM-2 (Homo sapiens, UniProt Q9P1W9); assay: PIM-2 biochemical assay (ADP Hunter); conditions: semi-quantitative class; read-out: PIM2 IC50;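 note: recombinant N-terminally His-tagged human enzyme, kinase activity quantified by detection of ADP formed as the direct reaction product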
T1 construct: histidine tag (N); made in house
T1 sequence (Q9P1W9 whole entry): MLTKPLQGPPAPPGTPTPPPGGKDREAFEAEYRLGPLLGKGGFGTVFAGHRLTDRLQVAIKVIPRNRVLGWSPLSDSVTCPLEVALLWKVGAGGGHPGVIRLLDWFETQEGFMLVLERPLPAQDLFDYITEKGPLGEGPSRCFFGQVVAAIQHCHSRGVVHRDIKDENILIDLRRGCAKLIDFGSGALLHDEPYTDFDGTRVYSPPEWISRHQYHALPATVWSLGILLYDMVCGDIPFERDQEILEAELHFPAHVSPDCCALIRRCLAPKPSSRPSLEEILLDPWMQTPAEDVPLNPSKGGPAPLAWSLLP

[2] = biological target: T2, PIM-1 (Homo sapiens, UniProt P11309); assay: PIM-1 biochemical assay (ADP Hunter); conditions: semi-quantitative class; read-out: PIM1 IC50;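 note: recombinant human PIM-1 carrying a C-terminal His tag, kinase activity quantified via ADP formed as the direct enzymatic product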
T2 construct: histidine tag (C); made in house
T2 sequence (P11309 whole entry): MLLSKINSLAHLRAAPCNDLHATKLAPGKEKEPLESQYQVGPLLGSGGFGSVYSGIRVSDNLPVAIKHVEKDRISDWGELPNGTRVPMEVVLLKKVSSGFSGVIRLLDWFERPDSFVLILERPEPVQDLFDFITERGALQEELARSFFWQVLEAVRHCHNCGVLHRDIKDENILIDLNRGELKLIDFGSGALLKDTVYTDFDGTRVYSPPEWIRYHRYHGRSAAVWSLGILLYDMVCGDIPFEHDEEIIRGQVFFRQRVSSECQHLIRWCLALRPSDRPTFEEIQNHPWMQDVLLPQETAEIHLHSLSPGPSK

[3] = biological target: T3, FLT3 (Homo sapiens, UniProt P36888); assay: FLT3 biochemical assay (ADP Hunter); conditions: semi-quantitative class;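 note: FLT3 enzymatic activity quantified through the ADP produced by the kinase reaction, detected with an ADP Hunter readout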
T3 sequence (P36888 27-993): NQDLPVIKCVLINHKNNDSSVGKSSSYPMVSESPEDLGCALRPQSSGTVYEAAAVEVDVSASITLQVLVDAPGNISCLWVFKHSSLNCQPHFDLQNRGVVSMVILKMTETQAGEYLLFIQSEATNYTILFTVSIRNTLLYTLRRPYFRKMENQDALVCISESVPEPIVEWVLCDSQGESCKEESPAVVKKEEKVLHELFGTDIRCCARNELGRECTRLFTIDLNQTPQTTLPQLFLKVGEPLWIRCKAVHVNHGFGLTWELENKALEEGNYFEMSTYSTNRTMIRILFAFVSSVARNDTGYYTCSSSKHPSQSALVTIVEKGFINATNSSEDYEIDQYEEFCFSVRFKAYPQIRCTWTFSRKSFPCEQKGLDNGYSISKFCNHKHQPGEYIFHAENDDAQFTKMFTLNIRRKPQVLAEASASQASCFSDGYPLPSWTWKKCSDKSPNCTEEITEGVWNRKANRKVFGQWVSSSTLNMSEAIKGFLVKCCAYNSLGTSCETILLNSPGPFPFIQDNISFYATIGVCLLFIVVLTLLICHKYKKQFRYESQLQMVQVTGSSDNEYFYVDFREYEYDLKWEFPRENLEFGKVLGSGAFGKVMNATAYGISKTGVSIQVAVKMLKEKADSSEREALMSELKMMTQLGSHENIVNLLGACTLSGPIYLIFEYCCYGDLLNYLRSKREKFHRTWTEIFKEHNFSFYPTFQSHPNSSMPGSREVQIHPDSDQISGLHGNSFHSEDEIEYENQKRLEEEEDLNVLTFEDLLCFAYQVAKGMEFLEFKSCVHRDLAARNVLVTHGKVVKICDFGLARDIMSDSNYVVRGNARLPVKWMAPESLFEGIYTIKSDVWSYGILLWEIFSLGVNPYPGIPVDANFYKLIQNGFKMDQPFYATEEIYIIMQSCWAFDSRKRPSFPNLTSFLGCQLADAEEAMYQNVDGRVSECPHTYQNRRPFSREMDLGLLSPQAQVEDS

IC50 [1] [nM] | IC50 [2] [nM] | IC50 [3] [nM] | SMILES
> 1000 | – | – | COc1ccc(-n2nnc3ccc(N4CCCCCC4)nc32)cc1 [2-01]
> 1000 | – | – | COc1ccc(-n2nnc3ccc(NCc4ccc(F)cc4)nc32)cc1 [2-02, (4-Fluoro-benzyl)-[3-(4-methoxy-phenyl)-3H-[1,2,3]triazolo[4,5-b]pyridin-5-yl]amine]
> 1000 | > 1000 | – | COc1ccc(-n2nnc3ccc(NCc4cccc(Cl)c4)nc32)cc1 [2-03]
– | – | > 1000 | Oc1ccc(-n2nnc3ccc(N4CCCCCC4)nc32)cc1 [2-05]
> 1000 | > 1000 | – | CCOC(=O)c1cc2nnn(-c3ccc(OC)cc3)c2nc1NCc1ccc(F)cc1 [2-06]
> 1000 | > 1000 | – | CCOC(=O)c1cc2nnn(-c3ccc(OC)cc3)c2nc1N1CCCCCC1 [2-07]
> 1000 | – | – | FC(F)(F)Oc1cccc(-n2nnc3ccc(NCCc4cccnc4)nc32)c1 [2-08]
> 1000 | – | – | CCCNc1ccc2nnn(-c3cccc(OC(F)(F)F)c3)c2n1 [2-09]
> 1000 | – | – | FC(F)(F)Oc1cccc(-n2nnc3ccc(NC4CCOCC4)nc32)c1 [2-10]
> 1000 | – | – | c1ccc(CCNc2ccc3nnn(-c4ccccc4)c3n2)cc1 [2-11]
> 1000 | – | – | Fc1ccc(-n2nnc3ccc(N4CCCCCC4)nc32)cc1 [2-12]
> 1000 | – | – | Fc1ccc(-n2nnc3ccc(N4CCOCC4)nc32)cc1 [2-13]
> 1000 | > 1000 | – | CCOC(=O)c1cc2nnn(-c3ccc(OC)cc3)c2nc1NCC1CCN(C)CC1 [2-14, 3-(4-Methoxy-phenyl)-5-[(1-methyl-piperidin-4-ylmethyl)-amino]-3H-[1,2,3]triazolo[4,5-b]pyridine-6-carboxylic acid ethyl ester]
> 1000 | > 1000 | – | CCOC(=O)c1cc2nnn(-c3ccc(O)cc3)c2nc1NCc1ccc(F)cc1 [2-15]
> 1000 | > 1000 | – | CCOC(=O)c1cc2nnn(-c3ccc(O)cc3)c2nc1N1CCCCCC1 [2-16]
> 1000 | > 1000 | – | COc1cccc(CCNc2ccc3nnn(-c4ccc(F)cc4)c3n2)c1OC [2-17]
> 1000 | – | – | NS(=O)(=O)c1ccc(CCNc2ccc3nnn(-c4ccccc4)c3n2)cc1 [2-18]
> 1000 | 100 to 1000 | – | FC(F)(F)Oc1cccc(-n2nnc3ccc(NCC4CC4)nc32)c1 [2-20]
> 1000 | – | – | CN(C)C(=O)CN1CCC(CNc2ccc3nnn(-c4cccc(OC(F)(F)F)c4)c3n2)CC1 [2-22]
> 1000 | > 1000 | – | CC(=O)Nc1ccc(-n2nnc3ccc(NCC4CCN(C)CC4)nc32)cc1 [2-23]
> 1000 | – | – | CCCNc1ccc2nnn(-c3ccc(O)cc3)c2n1 [2-24]
> 1000 | – | – | O=C(CN1CCC(CNc2ccc3nnn(-c4cccc(OC(F)(F)F)c4)c3n2)CC1)C1CC1 [2-26]
> 1000 | 100 to 1000 | – | FC(F)(F)Oc1cccc(-n2nnc3ccc(NCC4CCN(C5CC5)CC4)nc32)c1 [2-27]
> 1000 | 100 to 1000 | – | O=CNCCN1CCN(c2ccc3nnn(-c4cccc(OC(F)(F)F)c4)c3n2)CC1 [2-29]
> 1000 | – | > 1000 | COCCN1CCC(CNc2ccc3nnn(-c4cccc(OC(F)(F)F)c4)c3n2)CC1 [2-30]
> 1000 | – | > 1000 | FC(F)(F)Oc1cccc(-n2nnc3ccc(NCC4CCN(CC5CC5)CC4)nc32)c1 [2-31]
> 1000 | > 1000 | – | CC(C)(C)OC(=O)N1CCC(Nc2ccc3nnn(-c4cccc(OC(F)(F)F)c4)c3n2)CC1 [2-33]

IC50 [1] [nM] | IC50 [2] [nM] | IC50 [3] [nM] | SMILES
> 1000 | > 1000 | – | CC(C)(C)OC(=O)N1CCN(CCNc2ccc3nnn(-c4cccc(OC(F)(F)F)c4)c3n2)CC1 [2-34]
> 1000 | 100 to 1000 | – | O=C1CN(CCNc2ccc3nnn(-c4cccc(OC(F)(F)F)c4)c3n2)CCN1 [2-35]
> 1000 | 100 to 1000 | 100 to 1000 | FC(F)(F)Oc1cccc(-n2nnc3ccc(NCCN4CCNCC4)nc32)c1 [2-36]
> 1000 | 100 to 1000 | – | OCCNc1ccc2nnn(-c3cccc(OC(F)(F)F)c3)c2n1 [2-37]
> 1000 | 100 to 1000 | > 1000 | OCCCNc1ccc2nnn(-c3cccc(OC(F)(F)F)c3)c2n1 [2-38]
> 1000 | > 1000 | – | CN(C)CCNc1ccc2nnn(-c3cccc(OC(F)(F)F)c3)c2n1 [2-39]
> 1000 | > 1000 | – | NC(=O)CNc1ccc2nnn(-c3cccc(OC(F)(F)F)c3)c2n1 [2-40]
> 1000 | > 1000 | – | CC(=O)NCCNc1ccc2nnn(-c3cccc(OC(F)(F)F)c3)c2n1 [2-41]
> 1000 | 100 to 1000 | – | NC(=O)CCNc1ccc2nnn(-c3cccc(OC(F)(F)F)c3)c2n1 [2-42]
> 1000 | 100 to 1000 | > 1000 | FC(F)(F)Oc1cccc(-n2nnc3ccc(N4CCC5(CC4)CNC5)nc32)c1 [2-43]
> 1000 | – | > 1000 | FC(F)(F)Oc1cccc(-n2nnc3ccc(N4CCC5(CCNCC5)CC4)nc32)c1 [2-45]
> 1000 | – | > 1000 | FC(F)(F)Oc1cccc(-n2nnc3ccc(N4CC5CNCC5C4)nc32)c1 (stereo not drawn) [2-46]
> 1000 | 100 to 1000 | – | O=C1NCCN1CCNc1ccc2nnn(-c3cccc(OC(F)(F)F)c3)c2n1 [2-48]
> 1000 | 100 to 1000 | – | CNCCCNc1ccc2nnn(-c3cccc(OC(F)(F)F)c3)c2n1 [2-50]
> 1000 | > 1000 | – | O=C1NCCC12CCN(c1ccc3nnn(-c4cccc(OC(F)(F)F)c4)c3n1)CC2 [2-51]
> 1000 | > 1000 | – | O=C1CNC2(CCN(c3ccc4nnn(-c5cccc(OC(F)(F)F)c5)c4n3)CC2)C1 [2-52]
> 1000 | – | > 1000 | FC(F)(F)Oc1cccc(-n2nnc3ccc(N4CCC5(CCNC5)CC4)nc32)c1 [2-60]
> 1000 | 100 to 1000 | > 1000 | FC(F)(F)Oc1cccc(-n2nnc3ccc(N4CCC5(CCNC5)C4)nc32)c1 (stereo not drawn) [2-64]
> 1000 | – | 100 to 1000 | Nc1ccc(-n2nnc3ccc(NCC4CCNCC4)nc32)cn1 [2-71]
> 1000 | 100 to 1000 | > 1000 | CC(C)CN1CCC(CNc2ccc3nnn(-c4cccc(OC(F)(F)F)c4)c3n2)CC1 [2-74]
> 1000 | 100 to 1000 | > 1000 | FC(F)(F)Oc1cccc(-n2nnc3ccc(NCC4CCN(CC5CCOCC5)CC4)nc32)c1 [2-75]
> 1000 | 100 to 1000 | > 1000 | FC(F)(F)Oc1cccc(-n2nnc3cc(Cl)c(NCC4CC5(CCNCC5)C4)nc32)c1 [2-77]
> 1000 | – | > 1000 | FC(F)(F)c1csc(-n2nnc3ccc(NCC4CCNCC4)nc32)n1 [2-88]
> 1000 | > 1000 | 100 to 1000 | CCN1CCOC2(CCN(c3ccc4nnn(-c5cccc(OC(F)(F)F)c5)c4n3)CC2)C1 [2-90]
> 1000 | 100 to 1000 | 100 to 1000 | CCN1CCC2(CC1)CC(CNc1nc3c(cc1Cl)nnn3-c1cccc(OC(F)(F)F)c1)C2 [2-91]
– | 100 to 1000 | > 1000 | COc1cc(NC2CCOCC2)nc2c1nnn2-c1cccc(N(C)C)c1 [2-93]
